Measurements published in ChEMBL document CHEMBL2203179, “New diarylureas and diarylamides possessing acet(benz)amidophenyl scaffold: design, synthesis, and antiproliferative activity against melanoma cell line” (Bioorg Med Chem Lett, 2012).

Assay: Antiproliferative activity against human A375P cells
Type: functional, cell-based
`Cc1ccc(NC(=O)Nc2ccc(C)c(NC(=O)c3ccccc3)c2)cc1C` showed an IC50 greater than 30 µM. `Cc1ccc(NC(=O)Nc2ccccc2Cl)cc1NC(=O)c1ccccc1` gave an IC50 greater than 30 µM. Work on `Cc1ccc(NC(=O)Nc2ccc(Cl)c(Cl)c2)cc1NC(=O)c1ccccc1` yielded an IC50 of 5.8 µM. `Cc1ccc(NC(=O)Nc2cc(Cl)cc(Cl)c2)cc1NC(=O)c1ccccc1` showed an IC50 of 0.259 µM. With `Cc1ccc(NC(=O)Nc2cc(C(F)(F)F)cc(C(F)(F)F)c2)cc1NC(=O)c1ccccc1` the IC50 was 0.162 µM. In the case of `Cc1ccc(NC(=O)Nc2ccc(Cl)c(C(F)(F)F)c2)cc1NC(=O)c1ccccc1`, the IC50 is reported as 1.3 µM. `Cc1ccc(NC(=O)Nc2cc(F)cc(C(F)(F)F)c2)cc1NC(=O)c1ccccc1` gave an IC50 greater than 30 µM. Compound `CC(=O)c1cccc(NC(=O)Nc2ccc(C)c(NC(=O)c3ccccc3)c2)c1` has an IC50 of 9.8 µM. With `Cc1ccc(NC(=O)Nc2cccc(Oc3ccccc3)c2)cc1NC(=O)c1ccccc1` the IC50 was greater than 30 µM. With `Cc1ccc(NC(=O)Nc2ccc3c(c2)OCO3)cc1NC(=O)c1ccccc1` the IC50 was greater than 30 µM. `Cc1ccc(NC(=O)Nc2ccc3c(c2)OCCO3)cc1NC(=O)c1ccccc1` showed an IC50 greater than 30 µM. Work on `Cc1ccc(NC(=O)Nc2ccc(Cl)nc2)cc1NC(=O)c1ccccc1` yielded an IC50 of 1.6 µM. In the case of `CC(=O)Nc1cc(NC(=O)c2cc(C(F)(F)F)cc(C(F)(F)F)c2)ccc1C`, the IC50 is reported as greater than 30 µM. Compound `CC(=O)Nc1cc(NC(=O)c2ccc(Cl)c(C(F)(F)F)c2)ccc1C` has an IC50 greater than 30 µM. In the case of `CC(=O)Nc1cc(NC(=O)c2ccc3c(c2)OCCO3)ccc1C`, the IC50 is reported as 12.9 µM. `CC(=O)Nc1cc(NC(=O)c2cc(C)on2)ccc1C` showed an IC50 greater than 30 µM. `CC(=O)Nc1cc(NC(=O)c2cc(=O)c3ccccc3o2)ccc1C` showed an IC50 greater than 30 µM. For `Cc1ccc(NC(=O)c2cc(C(F)(F)F)cc(C(F)(F)F)c2)cc1NC(=O)c1ccccc1`, the IC50 was greater than 30 µM. In the case of `Cc1ccc(NC(=O)c2ccc(Cl)c(C(F)(F)F)c2)cc1NC(=O)c1ccccc1`, the IC50 is reported as greater than 30 µM. `Cc1ccc(NC(=O)c2ccc3c(c2)OCCO3)cc1NC(=O)c1ccccc1` gave an IC50 greater than 30 µM. `Cc1cc(C(=O)Nc2ccc(C)c(NC(=O)c3ccccc3)c2)no1` gave an IC50 greater than 30 µM. With `Cc1ccc(NC(=O)c2cc(=O)c3ccccc3o2)cc1NC(=O)c1ccccc1` the IC50 was greater than 30 µM. Work on `CC(=O)Nc1cc(NC(=O)Nc2ccccc2Cl)ccc1C` yielded an IC50 greater than 30 µM. In the case of `CC(=O)Nc1cc(NC(=O)Nc2ccc(Cl)c(Cl)c2)ccc1C`, the IC50 is reported as 2.1 µM. In the case of `CC(=O)Nc1cc(NC(=O)Nc2cc(Cl)cc(Cl)c2)ccc1C`, the IC50 is reported as 0.561 µM. Work on `CC(=O)Nc1cc(NC(=O)Nc2cc(C(F)(F)F)cc(C(F)(F)F)c2)ccc1C` yielded an IC50 of 0.685 µM. `CC(=O)Nc1cc(NC(=O)Nc2ccc(Cl)c(C(F)(F)F)c2)ccc1C` gave an IC50 of 1.1 µM. Compound `CC(=O)Nc1cc(NC(=O)Nc2cc(F)cc(C(F)(F)F)c2)ccc1C` has an IC50 greater than 30 µM. Work on `CC(=O)Nc1cc(NC(=O)Nc2ccc(C)c(C)c2)ccc1C` yielded an IC50 greater than 30 µM. `CC(=O)Nc1cc(NC(=O)Nc2cccc(C(C)=O)c2)ccc1C` gave an IC50 of 22.1 µM. Compound `CC(=O)Nc1cc(NC(=O)Nc2cccc(Oc3ccccc3)c2)ccc1C` has an IC50 greater than 30 µM. `CC(=O)Nc1cc(NC(=O)Nc2ccc3c(c2)OCO3)ccc1C` gave an IC50 greater than 30 µM. `CC(=O)Nc1cc(NC(=O)Nc2ccc3c(c2)OCCO3)ccc1C` showed an IC50 greater than 30 µM. Compound `CC(=O)Nc1cc(NC(=O)Nc2ccc(Cl)nc2)ccc1C` has an IC50 of 1.1 µM. Compound `CNC(=O)c1cc(Oc2ccc(NC(=O)Nc3ccc(Cl)c(C(F)(F)F)c3)cc2)ccn1` [SORAFENIB] has an IC50 of 2.7 µM.

Assay: Ratio of IC50 for vemurafenib IC50 to compound IC50 for human A375P cells
Type: functional
With `Cc1ccc(NC(=O)Nc2cc(C(F)(F)F)cc(C(F)(F)F)c2)cc1NC(=O)c1ccccc1` the “Ratio IC50” value was 1.57.
